Data taken from US20130123261A1, “ISOXAZOLINE COMPOUNDS IN TYPE 2 DIABETES AND OTHER MALADIES” (CPSI STOCKHOLDER TRUST, priority 2009, published 2013).

Tested on: STZ-induced NIDDM in outbred ICR mice
Test: Effect of orally administered MIF antagonist on STZ-induced NIDDM in ICR mice
Format: in vivo
Conditions: for blood glucose levels: STZ 90 mg/Kg i.p., oral, daily single dose for 30 days; for blood glucose levels / serum levels of inflammatory cytokines / pro-inflammatory cytokine production: dose not stated
Experimental: ICR, MIF−/− BALB/c and BALB/c mice were fasted 20 hr before induction of diabetes with a single i.p. injection of STZ 90 mg/Kg (for ICR mice) or 130 mg/kg (for BALB/c mice) (Sigma, St. Louis, Mo., U.S.A.) freshly dissolved in 0.05 M citrate buffer, pH 4.5 following the protocol previously reported (13;14). Normal mice of each strain were injected with equivalent volume of citrate buffer as negative controls.
Blood samples from WT and MIF−/− mice were collected at 0, 1, 2, 4, 6, 8, and 10 weeks after STZ injection by tail snipping. Serum glucose levels were determined using Accu-Chek® glucometer. Body weights were measured immediately before blood collection. The animals were kept in individual metabolic cages for 24 hrs and provided with drinking water (100 ml) and food (75 g). The water and food consumption as well as urine output over a 24 hr period was determined. This process was repeated every week until 10 weeks after STZ induction.
Following administration of STZ, blood was collected at 1-week intervals by tail snips. Levels of TNF-α, IL-1β, IL-6, IL-4, IL-10, resistin (all from Peprotech, Mexico), and insulin (Lincon, St. Charles, Mo.) in sera were determined by ELISA as per the manufacturer's instructions.
Age and sex-matched ICR mice were fasted for 20 hrs and then injected i.p. with STZ (90 mg/Kg). Six-hours later following STZ injection mice were administered CSP1306 or PBS daily in a single dose orally for 30 days. Blood was collected by tail snipping once every week to measure glucose levels using Accu-Chek® glucometer and to determine cytokine levels by ELISA as described above. CPSI 1306 has the following formula: […]
NIDDM was induced in ICR mice by a single intraperitoneal injection of STZ (90 mg/kg). On day 5 post-STZ injection and thereafter mice were orally administered CPSI-1306 (1 mg/kg or 0.1 mg/Kg) daily for 30 days. Mice were bled once a week by tail sniping and levels of glucose (A) and inflammatory cytokines IL-6 (B) and TNF-α (C) in the blood were determined. The data are from one representative experiment out of three. * p<0.05.

[1] = ICR mice with STZ injection, 0.1 and 0.01 mg/kg
[2] = ICR mice, STZ-induced NIDDM, oral administration, ELISA

O=C(C[C@H]1CC(c2ccc(F)cc2F)=NO1)N1CCOCC1 [CPSI-1306]
blood glucose [1]: significant reduction
polyuria [1]: less polyuria
serum levels of inflammatory cytokines [1]: significant reduction
severity of NIDDM [1]: reduced severity of NIDDM
blood glucose levels after stoppage of treatment (ICR mice with STZ injection, after stoppage of treatment, data not shown): spike in blood glucose levels
blood glucose levels (ICR mice, listed as CSP156): significant drop
blood glucose levels (ICR mice, listed as CSP1306): significantly lowered blood glucose levels in majority of animals
blood glucose levels (ICR mice, listed as CSPI-1306): highly effective
level of pro-inflammatory cytokine IL-6 in the sera [2]: significant reduction
level of pro-inflammatory cytokine TNF-α in the sera [2]: significant reduction
serum levels of inflammatory cytokines / pro-inflammatory cytokine production (ICR mice, STZ-induced NIDDM, oral administration, listed as CSP156): reduction in serum levels of inflammatory cytokines
serum levels of inflammatory cytokines / pro-inflammatory cytokine production (ICR mice, STZ-induced NIDDM, oral administration, listed as CSPI-1306): highly effective in suppressing pro-inflammatory cytokine production
severity and progression of STZ-induced NIDDM (FIG. 6) (outbred ICR mice, STZ 90 mg/kg i.p., oral 1 mg/kg or 0.1 mg/Kg daily for 30 days from day 5 post-STZ): Significantly Reduces Severity and Progression
